ChEMBL document CHEMBL5579794, “Improved synthesis and evaluation of preclinical pharmacodynamic parameters of a new monocyclic β-lactam DPI-2016” (Bioorg Med Chem Lett, 2024)

Key:
[1] = system: Pseudomonas aeruginosa; assay: Antibacterial activity against Pseudomonas aeruginosa infected in BalbC mouse model of Septicaemia infection assessed as survival rate at 64 mg/kg administration starting at 0.5 to 2 hrs post infection and measured after 1 day relative to control; format: functional; settings: 24 h
[2] = system: Pseudomonas aeruginosa; assay: Antibacterial activity against Pseudomonas aeruginosa infected in BalbC mouse model of Septicaemia infection assessed as survival rate at 64 mg/kg administration starting at 0.5 to 2 hrs post infection and measured after 2 days relative to control; format: functional; settings: 48 h, time 2 day
[3] = system: Pseudomonas aeruginosa; assay: Antibacterial activity against Pseudomonas aeruginosa infected in BalbC mouse model of Septicaemia infection assessed as survival rate at 64 mg/kg administration starting at 0.5 to 2 hrs post infection and measured after 3 days relative to control; format: functional; settings: 72 h, time 3 day
[4] = system: Pseudomonas aeruginosa; assay: Antibacterial activity against Pseudomonas aeruginosa infected in BalbC mouse model of Septicaemia infection assessed as survival rate at 64 mg/kg administration starting at 0.5 to 2 hrs post infection and measured after 4 days relative to control; format: functional; settings: 96 h, time 4 day
[5] = system: Pseudomonas aeruginosa; assay: Antibacterial activity against Pseudomonas aeruginosa infected in BalbC mouse model of Septicaemia infection assessed as survival rate at 64 mg/kg administration starting at 0.5 to 2 hrs post infection and measured after 5 days relative to control; format: functional; settings: 120 h, time 5 day
[6] = system: Pseudomonas aeruginosa; assay: Antibacterial activity against Pseudomonas aeruginosa infected in BalbC mouse model of Septicaemia infection assessed as survival rate at 64 mg/kg administration starting at 0.5 to 2 hrs post infection and measured after 6 days relative to control; format: functional; settings: 144 h, time 6 day
[7] = system: Pseudomonas aeruginosa; assay: Antibacterial activity against Pseudomonas aeruginosa infected in BalbC mouse model of Septicaemia infection assessed as survival rate at 64 mg/kg administration starting at 0.5 to 2 hrs post infection and measured after 7 days relative to control; format: functional; settings: 168 h, time 7 day
[8] = system: Pseudomonas aeruginosa; assay: Antibacterial activity against Pseudomonas aeruginosa infected in BalbC mouse model of Septicaemia infection assessed as survival rate at 128 mg/kg administration starting at 0.5 to 2 hrs post infection and measured after 1 day relative to control; format: functional; settings: 24 h
[9] = system: Pseudomonas aeruginosa; assay: Antibacterial activity against Pseudomonas aeruginosa infected in BalbC mouse model of Septicaemia infection assessed as survival rate at 128 mg/kg administration starting at 0.5 to 2 hrs post infection and measured after 2 days relative to control; format: functional; settings: 48 h, time 2 day
[10] = system: Pseudomonas aeruginosa; assay: Antibacterial activity against Pseudomonas aeruginosa infected in BalbC mouse model of Septicaemia infection assessed as survival rate at 128 mg/kg administration starting at 0.5 to 2 hrs post infection and measured after 3 days relative to control; format: functional; settings: 72 h, time 3 day
[11] = system: Pseudomonas aeruginosa; assay: Antibacterial activity against Pseudomonas aeruginosa infected in BalbC mouse model of Septicaemia infection assessed as survival rate at 128 mg/kg administration starting at 0.5 to 2 hrs post infection and measured after 4 days relative to control; format: functional; settings: 96 h, time 4 day
[12] = system: Pseudomonas aeruginosa; assay: Antibacterial activity against Pseudomonas aeruginosa infected in BalbC mouse model of Septicaemia infection assessed as survival rate at 128 mg/kg administration starting at 0.5 to 2 hrs post infection and measured after 6 days relative to control; format: functional; settings: 144 h, time 6 day
[13] = system: Pseudomonas aeruginosa; assay: Antibacterial activity against Pseudomonas aeruginosa infected in BalbC mouse model of Septicaemia infection assessed as survival rate at 128 mg/kg administration starting at 0.5 to 2 hrs post infection and measured after 7 days relative to control; format: functional; settings: 168 h, time 7 day
[14] = Plasma protein binding in mouse at 1 uM incubated for 6 hrs by LC-MS/MS analysis; format: ADME, cell-free; settings: read-out: PPB (converted)
[15] = Stability in human plasma at 1 uM measured upto 120 mins by LC-MS/MS analysis; format: ADME, cell-free; settings: 2 h
[16] = system: J774.A1; assay: Cytotoxicity against mouse J774.A1 cells at upto 300 ug/ml relative to control; format: toxicity, cell-based; settings: up to 300 µg/mL
[17] = system: HepG2; assay: Cytotoxicity against human HepG2 cells at upto 300 ug/ml relative to control; format: toxicity, cell-based; settings: up to 300 µg/mL
[18] = Cytotoxicity against mouse BALB/3T3 clone A31 cells at upto 300 ug/ml relative to control; format: toxicity, cell-based; settings: up to 300 µg/mL
[19] = system: NRK-52E; assay: Cytotoxicity against rat NRK-52E cells at upto 300 ug/ml relative to control; format: toxicity, cell-based; settings: up to 300 µg/mL
[20] = system: H9c2; assay: Cytotoxicity against rat H9c2 cells at upto 300 ug/ml relative to control; format: toxicity, cell-based; settings: up to 300 µg/mL
[21] = system: THP-1; assay: Cytotoxicity against human THP-1 cells at upto 300 ug/ml relative to control; format: toxicity, cell-based; settings: up to 300 µg/mL
[22] = system: H9; assay: Cytotoxicity against human H9 cells at upto 300 ug/ml relative to control; format: toxicity, cell-based; settings: up to 300 µg/mL
[23] = Clearance in male Sprague-Dawley rat at 2 mg/kg by LC-MS/MS analysis; format: ADME, organism-based; settings: in vivo
[24] = Volume of distribution in male Sprague-Dawley rat at 2 mg/kg by LC-MS/MS analysis; format: ADME, organism-based; settings: in vivo
[25] = system: Pseudomonas aeruginosa; assay: Antibacterial activity against Pseudomonas aeruginosa infected in BalbC mouse model of Septicaemia infection assessed as survival rate at 4 mg/kg administered 30 mins post infection and measured after 1 day relative to control; format: functional; settings: 24 h
[26] = system: Pseudomonas aeruginosa; assay: Antibacterial activity against Pseudomonas aeruginosa infected in BalbC mouse model of Septicaemia infection assessed as survival rate at 4 mg/kg administered 30 mins post infection and measured after 2 days relative to control; format: functional; settings: 48 h, time 2 day
[27] = system: Pseudomonas aeruginosa; assay: Antibacterial activity against Pseudomonas aeruginosa infected in BalbC mouse model of Septicaemia infection assessed as survival rate at 4 mg/kg administered 30 mins post infection and measured after 3 days relative to control; format: functional; settings: 72 h, time 3 day
[28] = system: Pseudomonas aeruginosa; assay: Antibacterial activity against Pseudomonas aeruginosa infected in BalbC mouse model of Septicaemia infection assessed as survival rate at 4 mg/kg administered 30 mins post infection and measured after 4 days relative to control; format: functional; settings: 96 h, time 4 day
[29] = system: Pseudomonas aeruginosa; assay: Antibacterial activity against Pseudomonas aeruginosa infected in BalbC mouse model of Septicaemia infection assessed as survival rate at 4 mg/kg administered 30 mins post infection and measured after 5 days relative to control; format: functional; settings: 120 h, time 5 day
[30] = system: Pseudomonas aeruginosa; assay: Antibacterial activity against Pseudomonas aeruginosa infected in BalbC mouse model of Septicaemia infection assessed as survival rate at 4 mg/kg administered 30 mins post infection and measured after 7 days relative to control; format: functional; settings: 168 h, time 7 day
[31] = system: Pseudomonas aeruginosa; assay: Antibacterial activity against Pseudomonas aeruginosa infected in BalbC mouse model of Septicaemia infection assessed as survival rate at 8 mg/kg administered 30 mins post infection and measured after 3 days relative to control; format: functional; settings: 72 h, time 3 day
[32] = system: Pseudomonas aeruginosa; assay: Antibacterial activity against Pseudomonas aeruginosa infected in BalbC mouse model of Septicaemia infection assessed as survival rate at 8 mg/kg administered 30 mins post infection and measured after 4 days relative to control; format: functional; settings: 96 h, time 4 day
[33] = system: Pseudomonas aeruginosa; assay: Antibacterial activity against Pseudomonas aeruginosa infected in BalbC mouse model of Septicaemia infection assessed as survival rate at 8 mg/kg administered 30 mins post infection and measured after 5 days relative to control; format: functional; settings: 120 h, time 5 day
[34] = system: Pseudomonas aeruginosa; assay: Antibacterial activity against Pseudomonas aeruginosa infected in BalbC mouse model of Septicaemia infection assessed as survival rate at 8 mg/kg administered 30 mins post infection and measured after 6 days relative to control; format: functional; settings: 144 h, time 6 day
[35] = system: Pseudomonas aeruginosa; assay: Antibacterial activity against Pseudomonas aeruginosa infected in BalbC mouse model of Septicaemia infection assessed as survival rate at 8 mg/kg administered 30 mins post infection and measured after 7 days relative to control; format: functional; settings: 168 h, time 7 day

Question: What does the source list for `C[C@H]1[C@H](NC(=O)/C(=N\OC(C)(C)C(=O)O)c2csc(N)n2)C(=O)N1S(=O)(=O)O` [AZTREONAM]?
Answer: survival at 64 mg/kg [1]: 100%; survival at 64 mg/kg [2]: 60%; survival at 64 mg/kg [3]: 60%; survival at 64 mg/kg [4]: 60%; survival at 64 mg/kg [5]: 60%; survival at 64 mg/kg [6]: 60%; survival at 64 mg/kg [7]: 60%; survival at 128 mg/kg [8]: 100%; survival at 128 mg/kg [9]: 90%; survival at 128 mg/kg [10]: 90%; survival at 128 mg/kg [11]: 90%; survival at 128 mg/kg [12]: 90%; survival at 128 mg/kg [13]: 90%

Question: Which fraction unbound at 6 h, 1 µM [14] does the source give for `Cc1sc(N)nc1/C(=N/O[C@@H](COc1ccc(C(=N)N[C@@H]2CCNC2)cc1)C(=O)O)C(=O)N[C@@H]1C(=O)N(OS(=O)(=O)O)C1(C)C` here?
Answer: The fraction unbound at 6 h, 1 µM was 0.532.

Question: And the Stability [15]?
Answer: The Stability was “Stable”.

Question: And the Activity [16]?
Answer: Its Activity is over 80%.

Question: What about the Activity [17] of the same molecule?
Answer: The Activity was over 80%.

Question: And the Activity [18]?
Answer: The Activity was over 80%.

Question: And the Activity [19]?
Answer: Its Activity is over 80%.

Question: And the Activity [20]?
Answer: The Activity was over 80%.

Question: What about the Activity [21] of the same molecule?
Answer: Its Activity is over 80%.

Question: And the Activity [22]?
Answer: Its Activity is over 80%.

Question: What about the clearance [23] of the same molecule?
Answer: Its clearance is 12.5 mL/min/kg.

Question: What about the Vd [24] of the same molecule?
Answer: Its Vd is 0.37 L/kg.

Question: What about the survival at 4 mg/kg [25] of the same molecule?
Answer: Its survival at 4 mg/kg is 60%.

Question: What about the survival at 4 mg/kg [26] of the same molecule?
Answer: Its survival at 4 mg/kg is 60%.

Question: And the survival at 4 mg/kg [27]?
Answer: The survival at 4 mg/kg was 30%.

Question: And the survival at 4 mg/kg [28]?
Answer: Its survival at 4 mg/kg is 30%.

Question: What about the survival at 4 mg/kg [29] of the same molecule?
Answer: The survival at 4 mg/kg was 30%.

Question: And the survival at 4 mg/kg [30]?
Answer: Its survival at 4 mg/kg is 30%.

Question: And the survival at 8 mg/kg [31]?
Answer: Its survival at 8 mg/kg is 60%.

Question: What about the survival at 8 mg/kg [32] of the same molecule?
Answer: The survival at 8 mg/kg was 60%.

Question: And the survival at 8 mg/kg [33]?
Answer: The survival at 8 mg/kg was 60%.

Question: And the survival at 8 mg/kg [34]?
Answer: The survival at 8 mg/kg was 60%.

Question: What about the survival at 8 mg/kg [35] of the same molecule?
Answer: Its survival at 8 mg/kg is 60%.
